The structures appear in SMILES notation. In brackets after ≈: the same amount, converted by molar mass.

The record followed here is ChEMBL document CHEMBL3997852, “Discovery of Fluorine-Containing Benzoxazinyl-oxazolidinones for the Treatment of Multidrug Resistant Tuberculosis” (ACS Med Chem Lett, 2017).

In test [1] the test system is Mycobacterium tuberculosis. The experiment in a line: Antitubercular activity against isoniazid/rifampicin/streptomycin/ethambutol/levofloxacin-resistant Mycobacterium tuberculosis 16802 clinical isolate after 7 days by microplate alamar blue assay. It is filed as functional. Particulars: Mycobacterium tuberculosis, 16802, 168 h. In general terms: The colour change of resazurin is a common sign of viable cells or microbes.

Test [2] has as its system Mycobacterium tuberculosis. The experiment in a line: Antitubercular activity against isoniazid/rifampicin-resistant Mycobacterium tuberculosis 16892 clinical isolate after 7 days by microplate alamar blue assay. It is filed as functional. The note with it: Mycobacterium tuberculosis, 16892, 168 h.

In general, MIC90 refers to an inhibitory concentration at the 90% level, which refers to growth in some studies and to a panel of isolates in others. In the case of `O=C(NC[C@@H]1OC(=O)N2c3cc(F)c(C4=CCN(CCO)CC4)cc3OC[C@@H]12)C1CC1`, the MIC90 in test [1] amounted to 1 µg/mL (≈ 2.32 µM); in test [2], 0.5 µg/mL (≈ 1.16 µM).

As to `CO[C@H]1/C=C/O[C@@]2(C)Oc3c(C)c(O)c4c(O)c(c(/C=N/N5CCN(C)CC5)c(O)c4c3C2=O)NC(=O)/C(C)=C\C=C\[C@H](C)[C@H](O)[C@@H](C)[C@@H](O)[C@@H](C)[C@H](OC(C)=O)[C@@H]1C` [RIFAMPIN], the MIC90 was 20 µg/mL (≈ 24.3 µM) in test [1] and more than 40 µg/mL in test [2].

For `CC(=O)NC[C@@H]1OC(=O)N2c3cc(F)c(C4=CCN(C(=O)[C@@H](O)CO)CC4)cc3OC[C@@H]12`, the MIC90 in test [1] is 1 µg/mL (≈ 2.23 µM); in test [2] it was 0.25 µg/mL (≈ 0.556 µM).

As for `CC(=O)NC[C@@H]1OC(=O)N2c3cc(F)c(C4=CCN(C(=O)CN)CC4)cc3OC[C@@H]12.Cl`, the MIC90 in test [1] came out at 2 µg/mL; in test [2], 0.25 µg/mL.

On to `CC(=O)NC[C@@H]1OC(=O)N2c3cc(F)c(C4=CCN(CCO)CC4)cc3OC[C@@H]12`, for which the results for the MIC90 in test [1] and in test [2] were 2 µg/mL (≈ 4.93 µM) and 0.5 µg/mL (≈ 1.23 µM), respectively.

In the case of `NNC(=O)c1ccncc1` [ISONIAZID], the MIC90 is 2.5 µg/mL (≈ 18.2 µM) in test [1] and more than 40 µg/mL in test [2].

`CC(=O)NC[C@@H]1OC(=O)N2c3cc(F)c(C4=CCN(C(=O)CO)CC4)cc3OC[C@@H]12`: the MIC90 in test [1] is 0.5 µg/mL (≈ 1.19 µM); in test [2], 0.25 µg/mL (≈ 0.596 µM).
